# Reference: PubChem BioAssay (NCI)
#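 GI50 = concentration required for 50% inhibition of growth. TGI marks complete inhibition of growth.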
# Columns and labels:
# Experiment in all cases: NCI tumour cell line growth inhibition, 384-well format
# 786-0 renal = test system: 786-0 renal
# A498 renal = test system: A498 renal
# A549 NSCLC = test system: A549 NSCLC
# ACHN renal = test system: ACHN renal
# CAKI-1 renal = test system: CAKI-1 renal
# CCRF-CEM leukemia = test system: CCRF-CEM leukemia
# COLO 205 colon = test system: COLO 205 colon
# DU-145 prostate = test system: DU-145 prostate
# EKVX NSCLC = test system: EKVX NSCLC
# HCC-2998 colon = test system: HCC-2998 colon
# HCT-116 colon = test system: HCT-116 colon
# HCT-15 colon = test system: HCT-15 colon
# HL-60(TB) leukemia = test system: HL-60(TB) leukemia
# HOP-62 NSCLC = test system: HOP-62 NSCLC
# HOP-92 NSCLC = test system: HOP-92 NSCLC
# HS 578T breast = test system: HS 578T breast
# HT29 colon = test system: HT29 colon
# IGROV1 ovarian = test system: IGROV1 ovarian
# K-562 leukemia = test system: K-562 leukemia
# KM12 colon = test system: KM12 colon
# LOX IMVI melanoma = test system: LOX IMVI melanoma
# M14 melanoma = test system: M14 melanoma
# MCF7 breast = test system: MCF7 breast
# MDA-MB-231 breast = test system: MDA-MB-231 breast
# MDA-MB-435 melanoma = test system: MDA-MB-435 melanoma
# MDA-MB-468 breast = test system: MDA-MB-468 breast
# MOLT-4 leukemia = test system: MOLT-4 leukemia
# NCI-H226 lung = test system: NCI-H226 lung
structure (smiles),measurement,setting,value
CC1(C)CC(=O)c2c(C(F)(F)F)nn(-c3ccc(C(N)=O)c(NC4CCC(OC(=O)CN)CC4)c3)c2C1 (stereo not given),GI50,786-0 renal,43.9 nM
same,TGI,786-0 renal,11700 nM
same,GI50,A498 renal,67.2 nM
same,TGI,A498 renal,15100 nM
same,GI50,A549 NSCLC,29 nM
same,TGI,A549 NSCLC,11000 nM
same,GI50,ACHN renal,62 nM
same,TGI,ACHN renal,18100 nM
same,GI50,CAKI-1 renal,67.9 nM
same,TGI,CAKI-1 renal,19600 nM
same,GI50,CCRF-CEM leukemia,18.9 nM
same,TGI,CCRF-CEM leukemia,53.3 nM
same,GI50,COLO 205 colon,13.7 nM
same,TGI,COLO 205 colon,66.7 nM
same,GI50,DU-145 prostate,48.2 nM
same,TGI,DU-145 prostate,975 nM
same,GI50,EKVX NSCLC,83.1 nM
same,TGI,EKVX NSCLC,15600 nM
same,GI50,HCC-2998 colon,21.4 nM
same,TGI,HCC-2998 colon,87.4 nM
same,GI50,HCT-116 colon,41.4 nM
same,TGI,HCT-116 colon,13000 nM
same,GI50,HCT-15 colon,88.8 nM
same,TGI,HCT-15 colon,14200 nM
same,GI50,HL-60(TB) leukemia,19.2 nM
same,TGI,HL-60(TB) leukemia,35.4 nM
same,GI50,HOP-62 NSCLC,41 nM
same,TGI,HOP-62 NSCLC,20000 nM
same,GI50,HOP-92 NSCLC,28.2 nM
same,TGI,HOP-92 NSCLC,89.5 nM
same,GI50,HS 578T breast,32.1 nM
same,TGI,HS 578T breast,222 nM
same,GI50,HT29 colon,24.6 nM
same,TGI,HT29 colon,11500 nM
same,GI50,IGROV1 ovarian,18.9 nM
same,TGI,IGROV1 ovarian,74.3 nM
same,GI50,K-562 leukemia,27.4 nM
same,TGI,K-562 leukemia,10200 nM
same,GI50,KM12 colon,26.6 nM
same,TGI,KM12 colon,827 nM
same,GI50,LOX IMVI melanoma,17.4 nM
same,TGI,LOX IMVI melanoma,33.6 nM
same,GI50,M14 melanoma,31.4 nM
same,TGI,M14 melanoma,12000 nM
same,GI50,MCF7 breast,25.4 nM
same,TGI,MCF7 breast,843 nM
same,GI50,MDA-MB-231 breast,22.7 nM
same,TGI,MDA-MB-231 breast,71.7 nM
same,GI50,MDA-MB-435 melanoma,67.4 nM
same,TGI,MDA-MB-435 melanoma,38100 nM
same,GI50,MDA-MB-468 breast,21 nM
same,TGI,MDA-MB-468 breast,47.6 nM
same,GI50,MOLT-4 leukemia,11.9 nM
same,TGI,MOLT-4 leukemia,25.3 nM
same,GI50,NCI-H226 lung,30.3 nM
